Legend:
Experiment in all cases: relative viability (nuclei count vs DMSO), 5 days (fraction); higher = more cells survive
Palbociclib + OSI-027 = compound: CC(=O)c1c(C)c2cnc(Nc3ccc(N4CCNCC4)cn3)nc2n(C2CCCC2)c1=O [Palbociclib] + COc1cccc2cc(-c3nc([C@H]4CC[C@H](C(=O)O)CC4)n4ncnc(N)c34)[nH]c12 [OSI-027] (partner 0.5 µM)
How it was run: (§1)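 Lung cancer cell lines were seeded in 1536-well plates and dosed by pin tool the next day, with either a single drug or a fixed anchor-drug dose combined with five library-drug doses (not always all listed) spaced in √10 steps. Five days later, one step fixed the cells and stained their nuclei (final 0.05% Triton X-100, 1% formaldehyde, 1 ug/ml Hoechst), and nuclei were counted on 4× images. Relative viability is the nuclei count in treated wells divided by the count in vehicle wells, and each value is the median of duplicate plates.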

Palbociclib + Trametinib = compound: CC(=O)c1c(C)c2cnc(Nc3ccc(N4CCNCC4)cn3)nc2n(C2CCCC2)c1=O [Palbociclib] + CC(=O)Nc1cccc(-n2c(=O)n(C3CC3)c(=O)c3c(Nc4ccc(I)cc4F)n(C)c(=O)c(C)c32)c1 [Trametinib] (partner 0.02 µM)
How it was run: as §1

Palbociclib + Luminespib = compound: CC(=O)c1c(C)c2cnc(Nc3ccc(N4CCNCC4)cn3)nc2n(C2CCCC2)c1=O [Palbociclib] + CCNC(=O)c1noc(-c2cc(C(C)C)c(O)cc2O)c1-c1ccc(CN2CCOCC2)cc1 [Luminespib] (partner 0.01 µM)
How it was run: as §1

Palbociclib + Foretinib = compound: CC(=O)c1c(C)c2cnc(Nc3ccc(N4CCNCC4)cn3)nc2n(C2CCCC2)c1=O [Palbociclib] + COc1cc2c(Oc3ccc(NC(=O)C4(C(=O)Nc5ccc(F)cc5)CC4)cc3F)ccnc2cc1OCCCN1CCOCC1 [Foretinib] (partner 0.25 µM)
How it was run: as §1

Cell Line | relative viability (Palbociclib + OSI-027; first compound 0.01 µM) | relative viability (Palbociclib + OSI-027; first compound 0.03162 µM) | relative viability (Palbociclib + OSI-027; first compound 0.1 µM) | relative viability (Palbociclib + OSI-027; first compound 0.3162 µM) | relative viability (Palbociclib + OSI-027; first compound 1 µM) | relative viability (Palbociclib + Trametinib; first compound 0.01 µM) | relative viability (Palbociclib + Trametinib; first compound 0.1 µM) | relative viability (Palbociclib + Trametinib; first compound 0.3162 µM) | relative viability (Palbociclib + Trametinib; first compound 1 µM) | relative viability (Palbociclib + Luminespib; first compound 0.01 µM) | relative viability (Palbociclib + Luminespib; first compound 0.03162 µM) | relative viability (Palbociclib + Luminespib; first compound 0.1 µM) | relative viability (Palbociclib + Luminespib; first compound 0.3162 µM) | relative viability (Palbociclib + Luminespib; first compound 1 µM) | relative viability (Palbociclib + Foretinib; first compound 0.01 µM) | relative viability (Palbociclib + Foretinib; first compound 0.03162 µM) | relative viability (Palbociclib + Foretinib; first compound 0.1 µM) | relative viability (Palbociclib + Foretinib; first compound 0.3162 µM) | relative viability (Palbociclib + Foretinib; first compound 1 µM) | relative viability (Palbociclib + Trametinib; first compound 0.03162 µM)
NCI-H1915 | 0.628 | 0.426 | 0.511 | 0.513 | 0.407 | 0.29 | 0.297 | 0.289 | 0.245 | 0.807 | 0.674 | 0.793 | 0.71 | 0.629 | 1.04 | 0.968 | 1.06 | 0.95 | 0.905 | 
EPLC-272H | 0.293 |  | 0.257 | 0.254 | 0.213 | 0.286 | 0.268 | 0.244 | 0.25 | 0.225 |  | 0.346 | 0.518 | 0.379 | 0.794 |  | 0.572 | 0.689 | 0.435 | 
NCI-H322M | 0.553 | 0.499 | 0.385 | 0.435 | 0.446 | 0.499 | 0.491 | 0.482 | 0.51 | 0.699 | 0.729 | 0.647 | 0.657 | 0.475 | 0.977 | 0.776 | 0.616 | 0.641 | 0.414 | 0.474
NCI-H1437 | 0.747 | 0.734 | 0.711 | 0.65 | 0.291 | 0.553 | 0.456 | 0.332 | 0.293 | 1.16 | 1.07 | 0.961 | 0.89 | 0.666 | 1.27 | 1.16 | 0.992 | 0.991 | 0.783 | 0.522
ChaGo-K-1 | 0.594 | 0.396 | 0.661 | 0.563 | 0.594 | 0.852 | 0.874 | 0.939 | 0.954 | 0.532 | 0.575 | 0.893 | 0.689 | 0.62 | 0.928 | 0.797 | 1.1 | 0.959 | 0.977 | 
NCI-H1734 | 0.684 | 0.42 | 0.466 | 0.413 | 0.329 | 0.617 | 0.581 | 0.56 | 0.481 | 0.251 | 0.182 | 0.193 | 0.197 | 0.17 | 0.831 | 0.683 | 0.608 | 0.686 | 0.503 | 0.6
NCI-H2023 | 0.358 | 0.335 | 0.298 | 0.265 | 0.154 | 0.655 | 0.477 | 0.464 | 0.326 | 0.723 | 0.532 | 0.515 | 0.551 | 0.343 | 0.929 | 0.523 | 0.556 | 0.474 | 0.322 | 0.408
EMC-BAC-2 | 0.368 | 0.346 | 0.29 | 0.318 | 0.29 | 0.815 | 0.718 | 0.694 | 0.512 | 1.19 | 1.15 | 0.952 | 0.979 | 0.848 | 1 | 0.931 | 0.804 | 0.821 | 0.61 | 0.797
NCI-H2170 | 0.72 | 0.642 | 0.61 | 0.638 | 0.407 | 0.968 | 0.889 | 0.882 | 0.721 | 0.536 | 0.536 | 0.558 | 0.707 | 0.536 | 1.03 | 0.969 | 0.955 | 0.889 | 0.852 | 0.838
NCI-H2126 | 0.694 | 0.53 | 0.443 | 0.441 | 0.378 | 0.575 | 0.518 | 0.509 | 0.431 | 0.869 | 0.79 | 0.564 | 0.535 | 0.369 | 1.28 | 0.93 | 0.904 | 0.78 | 0.603 | 0.528
SW 1573 | 0.662 | 0.468 | 0.389 | 0.357 | 0.235 | 0.6 | 0.515 | 0.42 | 0.366 | 0.385 | 0.207 | 0.257 | 0.208 | 0.265 | 0.867 | 1 | 0.862 | 0.742 | 0.785 | 0.432
NCI-H1355 | 0.45 | 0.359 | 0.33 | 0.282 | 0.24 | 0.433 | 0.422 | 0.391 | 0.363 | 0.74 | 0.776 | 0.811 | 0.568 | 0.521 | 1.03 | 0.894 | 0.902 | 0.85 | 0.715 | 0.448
CAL-12T | 0.766 | 0.546 | 0.441 | 0.446 | 0.316 | 0.437 | 0.207 | 0.204 | 0.166 | 0.367 | 0.318 | 0.463 | 0.277 | 0.206 | 1.01 | 0.898 | 0.901 | 0.791 | 0.674 | 0.316
HCC-827 | 0.809 | 0.52 | 0.707 | 0.563 | 0.479 | 0.545 | 0.449 | 0.476 | 0.399 | 0.398 | 0.539 | 0.582 | 0.609 | 0.532 | 1.03 | 0.951 | 0.999 | 0.977 | 0.734 | 0.52
SK-LU-1 | 0.375 | 0.316 | 0.231 | 0.241 | 0.202 | 0.516 | 0.39 | 0.411 | 0.317 | 0.218 | 0.177 | 0.222 | 0.223 | 0.207 | 0.825 | 0.74 | 0.571 | 0.552 | 0.361 | 0.439
NCI-H2085 | 0.658 | 0.55 | 0.547 | 0.574 | 0.369 | 0.529 | 0.588 | 0.482 | 0.34 | 0.426 | 0.332 | 0.376 | 0.412 | 0.327 | 1.03 | 0.875 | 0.744 | 0.599 | 0.534 | 0.516

Reference: the supplement of paper PMC10307832
